Reference: article PMC9110766, “Structure-Based Design of 2-Aminopurine Derivatives as CDK2 Inhibitors for Triple-Negative Breast Cancer” (Frontiers in Pharmacology, 2022)
Where a name gives a salt, the structure may show the parent alone.

Assays:
[1] = molecular target: CDK2/cyclin A (Homo sapiens, UniProt P24941); test: CDK2 inhibition, Kinase-Glo Luminescent Kinase Assay; assay type: biochemical; details: for inhibition at 0.5 µM: read-out: inhibition rate (%) @0.5 μM against CDK2, compound at 0.5 μM; for IC50: geometric means of n ⩾ 3 experiments, 10 µM ATP, read-out: IC50 against CDK2; for CDK2 inhibitory activity (in words): screened at 0.5 μM
Procedure: The IC50 values were calculated using Prism GraphPad software.

Compound | inhibition at 0.5 µM [1] [%] | melting point | IC50 [1] [nM] | CDK2 inhibitory activity (in words) [1]
O=[N+]([O-])c1cccc(Nc2nc(-c3ccsc3)c3nc[nH]c3n2)c1 [Compound 5e, N-(3-nitrophenyl)-6-(thiophen-3-yl)-9H-purin-2-amine] |  | > 280 °C |  | inactive
O=C(O)c1ccc(-c2nc(Nc3cccc([N+](=O)[O-])c3)nc3[nH]cnc23)cc1 [Compound 5j, 4-(2-((3-nitrophenyl)amino)-9H-purin-6-yl)benzoic acid] | 7 | > 300 °C |  | low activity
6-(3-(aminomethyl)phenyl)-N-(4-(piperazin-1-yl)phenyl)-9H-purin-2-amine dihydrochloride [Compound 11r] |  |  | 190 ± 10 | 
O=[N+]([O-])c1cccc(Nc2nc(-c3ccc(F)cc3)c3nc[nH]c3n2)c1 [Compound 5i, 6-(4-fluorophenyl)-N-(3-nitrophenyl)-9H-purin-2-amine] |  |  |  | abolished CDK2 inhibitory activity
O=[N+]([O-])c1cccc(Nc2nc(-c3cccc4ccccc34)c3nc[nH]c3n2)c1 [Compound 5b, 6-(naphthalen-1-yl)-N-(3-nitrophenyl)-9H-purin-2-amine] | 3 | > 300 °C |  | weak activity
COC(=O)c1ccc(-c2nc(Nc3cccc([N+](=O)[O-])c3)nc3[nH]cnc23)cc1 [Compound 5k, Methyl 4-(2-((3-nitrophenyl)amino)-9H-purin-6-yl)benzoate] | 3 | 212 to 214 °C |  | abolished CDK2 inhibitory activity
O=[N+]([O-])c1cccc(Nc2nc(-c3ccc4c(c3)OCO4)c3nc[nH]c3n2)c1 [Compound 5d, 6-(benzo[d][1,3]dioxol-5-yl)-N-(3-nitrophenyl)-9H-purin-2-amine] | 7 | 260 °C (dec.) |  | weak activity
O=C(O)c1cccc(-c2nc(Nc3cccc([N+](=O)[O-])c3)nc3[nH]cnc23)c1 [Compound 5g, 3-(2-((3-nitrophenyl)amino)-9H-purin-6-yl)benzoic acid] |  |  | 150 ± 10 | 
COC(=O)c1cccc(-c2nc(Nc3cccc([N+](=O)[O-])c3)nc3[nH]cnc23)c1 [Compound 5h, Methyl 3-(2-((3-nitrophenyl)amino)-9H-purin-6-yl)benzoate] | 11 | 257 °C |  | abolished CDK2 inhibitory activity
O=[N+]([O-])c1cccc(Nc2nc(-c3ccccc3)c3nc[nH]c3n2)c1 [Compound 5a, N-(3-nitrophenyl)-6-phenyl-9H-purin-2-amine] |  |  | 310 ± 10 | 
Cl.O=[N+]([O-])c1cccc(Nc2nc(-c3ccc[nH]3)c3nc[nH]c3n2)c1 [Compound 5c, N-(3-nitrophenyl)-6-(1H-pyrrol-2-yl)-9H-purin-2-amine hydrochloride] | 37 | 236 °C (dec.) |  | 
O=[N+]([O-])c1cccc(Nc2nc(-c3cccc([N+](=O)[O-])c3)c3nc[nH]c3n2)c1 [Compound 5f, N,6-bis(3-nitrophenyl)-9H-purin-2-amine] |  | > 300 °C |  | abolished CDK2 inhibitory activity

The next lines start with the values.

inhibition at 0.5 µM [1] [%] | melting point | IC50 [1] [nM] | CDK2 inhibitory activity (in words) [1] | Compound
28 |  |  |  | CC(C)(C)c1ccc(Nc2nc(-c3cccc(CN)c3)c3nc[nH]c3n2)cc1 [Compound 11j, 6-(3-(aminomethyl)phenyl)-N-(4-(tert-butyl)phenyl)-9H-purin-2-amine hydrochloride]
33 | > 300 °C |  |  | Cl.Cl.NCc1cccc(-c2nc(Nc3cccc(N)c3)nc3[nH]cnc23)c1 [Compound 11m, N ^ 1-(6-(3-(aminomethyl)phenyl)-9H-purin-2-yl)benzene-1,3-diamine dihydrochloride]
 | > 300 °C | 280 ± 20 |  | Cc1ccc(Nc2nc(-c3cccc(CN)c3)c3nc[nH]c3n2)cc1.Cl [Compound 11i, 6-(3-(aminomethyl)phenyl)-N-(p-tolyl)-9H-purin-2-amine hydrochloride]
 | 200 to 202 °C | 130 ± 20 |  | Cl.NCc1ccc(-c2nc(Nc3ccccc3)nc3[nH]cnc23)cc1 [Compound 11g, 6-(4-(aminomethyl)phenyl)-N-phenyl-9H-purin-2-amine hydrochloride]
 | > 300 °C | 180 ± 20 |  | CN(C)S(=O)(=O)c1ccc(Nc2nc(-c3cccc(CN)c3)c3nc[nH]c3n2)cc1.Cl [Compound 11q, 4-((6-(3-(aminomethyl)phenyl)-9H-purin-2-yl)amino)-N,N-dimethylbenzene sulfonamide hydrochloride]
 | > 300 °C | 320 ± 60 |  | Cl.NCc1cccc(-c2nc(Nc3ccc(F)cc3)nc3[nH]cnc23)c1 [Compound 11n, 6-(3-(aminomethyl)phenyl)-N-(4-fluorophenyl)-9H-purin-2-amine hydrochloride]
 | > 300 °C | 230 ± 10 |  | Cl.NCc1ccc(-c2nc(Nc3cccc([N+](=O)[O-])c3)nc3[nH]cnc23)cc1 [Compound 11d, 6-(4-(aminomethyl)phenyl)-N-(3-nitrophenyl)-9H-purin-2-amine hydrochloride]
35 | 203 to 205 °C |  |  | Cl.NCc1cccc(-c2nc(Nc3ccccc3)nc3[nH]cnc23)c1 [Compound 11f, 6-(3-(aminomethyl)phenyl)-N-phenyl-9H-purin-2-amine hydrochloride]
40 | > 300 °C |  |  | Cl.Nc1ccc(-c2nc(Nc3cccc([N+](=O)[O-])c3)nc3[nH]cnc23)cc1 [Compound 11b, 6-(4-aminophenyl)-N-(3-nitrophenyl)-9H-purin-2-amine hydrochloride]
13 | 210 °C (dec.) |  |  | Cl.NCc1cccc(-c2nc(Nc3ccc(-c4ccccc4)cc3)nc3[nH]cnc23)c1 [Compound 11h, N-([1,1′-biphenyl]-4-yl)-6-(3-(aminomethyl)phenyl)-9H-purin-2-amine hydrochloride]
35 | > 230 °C |  |  | Cl.NCCc1cccc(-c2nc(Nc3cccc([N+](=O)[O-])c3)nc3[nH]cnc23)c1 [Compound 11e, 6-(3-(2-aminoethyl)phenyl)-N-(3-nitrophenyl)-9H-purin-2-amine hydrochloride]
26 | > 300 °C |  |  | Cl.NCc1cccc(-c2nc(Nc3ccc(N4CCNCC4)cc3)nc3[nH]cnc23)c1 [Compound 11k, 6-(3-(aminomethyl)phenyl)-N-(4-(piperazin-1-yl)phenyl)-9H-purin-2-amine hydrochloride]
 |  | 240 ± 10 |  | NCc1ccc(-c2nc(Nc3ccc(F)cc3)nc3[nH]cnc23)cc1 [Compound 11o, 6-(4-(aminomethyl)phenyl)-N-(4-fluorophenyl)-9H-purin-2-amine hydrochloride]
